Experimental findings from patent US6531598B1, “Naphthostyrils” (Hoffmann-La Roche Inc., priority 2001, dated 2003) are described below.

In general, IC50 refers to the concentration that inhibits the measured activity by half. Read a low IC50 as greater potency.

One assay has as its target T1, human Cyclin E/CDK2 (Homo sapiens, UniProt P24941).
T1 construct: made in house; host or cells: insect cells
Briefly: CDK2 FlashPlate Assay. The assay is classed as biochemical. The conditions noted are these: inhibition of Rb phosphorylation, 33P-ATP, 25 minutes at room temperature. The protocol:
To determine inhibition of CDK2 activity, purified recombinant retinoblastoma (Rb) protein was coated on 96 well FlashPlates (New England Nuclear, Boston, Mass.). […] Recombinant active human Cyclin E/CDK2 complexes were partially purified from extracts of insect cells. […] Plates were incubated for 25 minutes at room temperature with shaking, then washed and counted in the Topcount scintillation counter (Packard Instrument Co., Downers Grove, Ill.). Dilutions of test compounds were tested in duplicate in each assay. The percent inhibition of Rb phosphorylation, which is a measure of the inhibition of CDK2 activity, was determined according to the following formula: [formula]
where “test compound” refers to the average counts per minute of the test duplicates, “nonspecific” refers to the average counts per minute when no Cyclin E/CDK2 was added, and “total” refers to the average counts per minute when no compound was added.

For assay [1], the system named is RKO colon carcinoma cell line. Briefly: Tetrazolium dye proliferation assay, RKO. It counts as cell-based. The conditions noted are these: MTT, 5 days post addition of test compound, 500 cell per well. The protocol: (§1) The cell lines used were MDA-MB435, a breast carcinoma dell line and RKO, a colon carcinoma cell line.
(§2) Teh estrogen receptor negative epithelial breast carcinoma line (MDA-MB435) was purchased from American Type Cell Culture Collection (ATCC; Rockville, Md.) and was grown in the medium recommended by ATCC. For analysis of the test compounds on growth of these cells, the cells were plated at 2000 cells per well in a 96-well tissue culture plate, and were incubated overnight at 37° C. with 5% CO2. The next day, the test compounds were dissolved in 100% dimethyl sulfoxide (DMSO) to yield a 10 mM stock solution. […] The compounds were then serially diluted in medium with 1.2% DMSO. One-fourth final volume of the diluted compounds was transferred to 96 well plates. Test compounds were assayed in duplicate. DMSO was added to a row of “control cells” such that the final concentration of DMSO in each well was 0.3%. Wells to which no cells were added served as the “blank.” Wells to which no inhibitor was added served as “no inhibitor control”. The plates were returned to the incubator, and 5 days post addition of test compound, were analyzed as described below.
(§3) 3-(4,5-Dimethylthiazole-2-yl)-2,5-diphenyl-2H-tetrazolium bromide (thiazolyl blue; MTT) was added to each well to yield a final concentration of 1 mglmL. The plates were then incubated at 37° C. for 3 hours. The plates were centrifuged at 1000 rpm for 5 minutes prior to aspiration of the MTT-containing medium. The MTT-containing medium was then removed and 100 μL 100% EtOH was added to each well to dissolve the resulting formazan metabolite. To ensure complete dissolution, plates were shaken for 15 minutes at room temperature. Absorbencies were read in a microliter plate reader (Molecular Dynamics) at a wavelength of 570 nm with a 650 nm reference. Percent inhibition was calculated by subtracting the absorbency of the blank (no cell) wells from all wells, then subtracting the division of the average absorbency of each test duplicate by the average of the controls from 1.00. Inhibitory concentrations (IC50) were determined from the linear regression of a plot of the logarithm of the concentration versus the percent inhibition.
The colon carcinoma line RKO was also obtained from the ATCC and was tested according to the same protocol provided above except that the cell line RKO was plated at 500 cell per well.

The subject of assay [2] is MDA-MB435 breast carcinoma cell line. Briefly: Tetrazolium dye proliferation assay, MDA-MB435. The assay is classed as cell-based. The following applies: MTT, 5 days post addition of test compound, 2000 cells per well. As to the method:
as §1, §2, §3

Where [3] appears, read: Homo sapiens, MDA-MB-435, 120 h.

Molecules are shown by their SMILES. Structures can show the parent of a compound that is named as a salt. A value given as a limit tells only on which side of the number the result lay.

`CCOc1cc(-c2ccc[nH]2)c2c3c(ccc(F)c13)NC2=O` [Example 14, 5-Ethoxy-6-fluoro-3-(1H-pyrrol-2-yl)-1H-benzo[cd]indol-2-one] came in with an IC50 against human Cyclin E/CDK2 of at most 10 µM.

Regarding `NCCOc1cc(-c2ccc[nH]2)c2c3c(ccc(F)c13)NC2=O` [Example 20, 5-(2-Amino-ethoxy)-6-fluoro-3-(1H-pyrrol-2-yl)-1H-benzo[cd]indol-2-one methanesulfonic acid salt], on human Cyclin E/CDK2, the IC50 is at most 10 µM. As to `O=C1Nc2ccc(F)c3c(N4CCCC(CO)C4)cc(-c4ccc[nH]4)c1c23` (centres unmarked) [Example 34, 6-Fluoro-5-(3-hydroxymethyl-piperidin-1-yl)-3-(1H-pyrrol-2-yl)-1H-benzo[cd]indol-2one], the IC50 was at most 10 µM in assay [1] (Colon carcinoma cell, 120 h) and at most 10 µM in assay [2] (setting [3]). `CCN(CC)CCNc1cc(-c2ccc[nH]2)c2c3c(ccc(F)c13)NC2=O` [Example 31, 5-(2-Diethylamino-ethylamino)-6-fluoro-3-(1H-pyrrol-2-yl)-1H-benzo[cd]indol-2-one] came in with an IC50 against human Cyclin E/CDK2 of at most 10 µM. Turning to `CC(=O)NCCNc1cc(-c2ccc[nH]2)c2c3c(ccc(F)c13)NC2=O` [Example 29, N-[2-[6-Fluoro-2oxo-3-(1H-pyrrol-2-yl)-1,2-dihydro-benzo[cd]indol-5-ylamino]-ethyl]-acetamide], the IC50 on human Cyclin E/CDK2 was at most 10 µM. `O=C1Nc2ccc(F)c3c(N4CCNC4=O)cc(-c4ccc[nH]4)c1c23` [Example 28, 6-Fluoro-5-(2-oxo-imidazolidin-1-yl)-3-(1H-pyrrol-2-yl)-1H-benzo[cd]indol-2-one] had an IC50 against human Cyclin E/CDK2 of at most 10 µM. The same measure, in the same setting: as for `CCc1cc(-c2ccc[nH]2)c2c3c(ccc(F)c13)NC2=O` [Example 27, 5-Ethyl-6-fluoro-3-(1H-pyrrol-2-yl)-1H-benzo[cd]indol-2-one], the figure is at most 10 µM.

For `O=C1Nc2ccc(F)c3c(N4CCCC(O)C4)cc(-c4ccc[nH]4)c1c23` (centres unmarked) [Example 35, 6-Fluoro-5-(3-hydroxy-piperidin-1-yl)-3-(1H-pyrrol-2-yl)-1H-benzo[cd]indol-2-one], the IC50 in assay [1] (Colon carcinoma cell, 120 h) is at most 10 µM; in assay [2] (setting [3]), at most 10 µM. `O=C1Nc2ccc(F)c3c([S+]([O-])CCO)cc(-c4ccc[nH]4)c1c23` (centres unmarked) [Example 37, 6-Fluoro-5-(2-hydroxy-ethanesulfinyl)-3-(1H-pyrrol-2-yl)-1H-benzo[cd]indol-2-one] gave a concentration for half-maximal inhibition (IC50) in assay [1] (Colon carcinoma cell, 120 h) of at most 10 µM.

On to `NCC[S+]([O-])c1cc(-c2ccc[nH]2)c2c3c(ccc(F)c13)NC2=O` (centres unmarked) [Example 43, 5-(2-Amino-ethanesulfinyl)-6-fluoro-3-(1H-pyrrol-2-yl)-1H-benzo[cd]indol-2-one hydrochloride salt], for which the IC50 in assay [1] and in assay [2] was at most 10 µM each time.

Take `NCCOc1cc(-c2ccc[nH]2)c2c3c(ccc(F)c13)NC2=O` [Example 19, 5-(2-Amino-ethoxy)-6-fluoro-3-(1H-pyrrol-2-yl)-1H-benzo[cd]indol-2-one]: the IC50 in assay [1] (Colon carcinoma cell, 120 h) was at most 10 µM; in assay [2] (setting [3]) it was at most 10 µM. For the compound `NCC[S+]([O-])c1cc(-c2ccc[nH]2)c2c3c(ccc(F)c13)NC2=O` (centres unmarked) [Example 42, 5-(2-Amino-ethanesulfinyl)-6-fluoro-3-(1H-pyrrol-2-yl)-1H-benzo[cd]indol-2-one], the IC50 in assay [1] (Colon carcinoma cell, 120 h) was at most 10 µM; in assay [2] (setting [3]) it was at most 10 µM. `Cc1cc(-c2ccc[nH]2)c2c3c(ccc(F)c13)NC2=O` [Example 25, 6-Fluoro-5-methyl-3-(1H-pyrrol-2-yl)-1H-benzo[cd]indol-2-one] registered an IC50 on human Cyclin E/CDK2 of at most 10 µM. In turn, `O=C1Nc2ccc(F)c3c(OCCCO)cc(-c4ccc[nH]4)c1c23` [Example 17, 6-Fluoro-5-(3-hydroxy-propoxy)-3-(1H-pyrrol-2-yl)-1H-benzo[cd]indol-2-one] registered an IC50 at human Cyclin E/CDK2 of at most 10 µM. Consider `CCC(C)c1cc(-c2ccc[nH]2)c2c3c(ccc(F)c13)NC2=O` (racemic) [Example 26, (rac)-5-sec-Butyl-6-fluoro-3-(1H-pyrrol-2-yl)-1H-benzo[cd]indol-2-one], for which the IC50 at human Cyclin E/CDK2 was at most 10 µM.
